{"source": "patent US20170049718A1", "about": "“DRUG FOR TREATMENT OF TINNITUS PATIENTS” (KYORIN PHARMACEUTICAL CO., LTD., priority 2014, published 2017)", "key": {"[1]": {"target": "α9/α10 nicotinic acetylcholine receptors (Rattus norvegicus, UniProt P43144+Q9JLB5)", "sequence (P43144 26-479)": "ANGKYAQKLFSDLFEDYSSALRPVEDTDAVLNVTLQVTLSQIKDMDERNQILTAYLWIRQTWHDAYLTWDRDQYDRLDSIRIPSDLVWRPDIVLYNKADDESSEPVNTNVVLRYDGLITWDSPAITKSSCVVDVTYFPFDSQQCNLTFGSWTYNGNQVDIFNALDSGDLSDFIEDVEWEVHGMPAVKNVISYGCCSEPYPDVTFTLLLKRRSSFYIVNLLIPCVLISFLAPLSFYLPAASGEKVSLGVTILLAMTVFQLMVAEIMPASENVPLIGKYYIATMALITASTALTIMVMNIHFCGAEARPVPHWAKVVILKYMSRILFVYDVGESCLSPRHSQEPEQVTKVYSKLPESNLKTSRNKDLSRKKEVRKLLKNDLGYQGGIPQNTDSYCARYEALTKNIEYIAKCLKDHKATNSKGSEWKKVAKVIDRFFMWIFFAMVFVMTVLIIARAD", "sequence (Q9JLB5 25-447)": "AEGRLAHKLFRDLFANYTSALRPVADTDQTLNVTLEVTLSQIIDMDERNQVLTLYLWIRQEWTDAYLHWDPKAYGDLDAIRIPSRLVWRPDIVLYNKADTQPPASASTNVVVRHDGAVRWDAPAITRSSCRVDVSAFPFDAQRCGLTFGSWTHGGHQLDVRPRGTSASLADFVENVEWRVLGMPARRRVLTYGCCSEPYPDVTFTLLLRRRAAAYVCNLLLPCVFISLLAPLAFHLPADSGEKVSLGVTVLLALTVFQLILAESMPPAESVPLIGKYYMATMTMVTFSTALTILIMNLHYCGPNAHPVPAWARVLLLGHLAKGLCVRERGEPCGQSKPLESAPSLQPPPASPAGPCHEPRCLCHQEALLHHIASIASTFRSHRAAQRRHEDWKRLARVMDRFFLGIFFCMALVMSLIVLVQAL", "conditions": "Plazas, et al., Eur J Pharmacol., 2007; cited from earlier work"}, "5-HT3 receptors": {"target": "T1, 5-HT3 receptors (Homo sapiens, UniProt P46098)", "T1 sequence (P46098 24-478)": "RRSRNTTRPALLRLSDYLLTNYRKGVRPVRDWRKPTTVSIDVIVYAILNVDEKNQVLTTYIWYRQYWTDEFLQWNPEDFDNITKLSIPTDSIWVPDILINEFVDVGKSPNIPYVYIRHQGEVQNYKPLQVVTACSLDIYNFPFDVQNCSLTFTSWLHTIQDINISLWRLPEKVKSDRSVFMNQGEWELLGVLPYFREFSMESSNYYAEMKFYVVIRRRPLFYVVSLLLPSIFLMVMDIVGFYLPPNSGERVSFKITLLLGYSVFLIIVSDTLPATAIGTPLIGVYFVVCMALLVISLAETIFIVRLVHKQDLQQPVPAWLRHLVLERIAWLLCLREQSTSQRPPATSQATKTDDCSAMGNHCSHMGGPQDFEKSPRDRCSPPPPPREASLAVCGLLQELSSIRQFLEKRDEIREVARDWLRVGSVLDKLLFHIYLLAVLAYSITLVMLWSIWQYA", "conditions": "cited from earlier work"}, "patients having tinnitus": {"test_system": "patients having tinnitus", "test": "24-week placebo controlled, randomized, double-blind comparative trial, TRSw score", "type": "in vivo, human", "design": "key to Change in TRSw score: LS mean change in TRSw score from week 0 to week 24; <0 = better", "conditions": "for Change in TRSw score, Neramexane-placebo / Change in TRSw score: 24 weeks; for Change in TRSw score: 50 mg/day", "excerpt": "A therapeutic effect can be evaluated by physician inquiry using a questionnaire form such as TRSw (Tinnitus Rating Scale One-Week Version) (Acta Otolaryngol., 2013, 133(5), 491-498).\nThe efficacy of neramexane mesylate on patients with tinnitus associated with age-related hearing loss, tinnitus associated with auditory disorder in the range of the human voice at an auditory threshold value exceeding 25 dB, tinnitus that includes two or more different tinnitus sounds or tinnitus that includes a tinnitus sound that is not high-frequency alone, was evaluated in a 24-week, placebo controlled, randomized, double-blind comparative trial.\nThe film coated tablets containing 12.5 mg neramexane mesylate or placebo tablets were administered for 24 weeks to patients having tinnitus. The dosage was started from 12.5 mg/day, gradually increasing the dose to 50 mg/day over 4 weeks, and maintaining the same dose thereafter.\nThe therapeutic effect of neramexane mesylate for the patients was evaluated using the TRSw score. Statistical analysis was performed using a mixed-effect model repeated measure (MMRM) taking into consideration the covariance structure of error for the patient, with the change in TRSw score from before administration of neramexane mesylate tablets or placebo tablets (0 weeks) to each evaluation time point as the response variable, and with the drug-administered group, evaluation time point, interaction between drug-administered group and evaluation time point, 0-week TRSw score, gender and body weight as […]. The numerical values in the table represent least mean squares for the change in TRSw score at 24 weeks after administration. A change in score of less than 0 indicates a higher therapeutic effect."}, "[2]": {"conditions": "Tinnitus associated with age-related hearing loss at hearing threshold of 25 dB or more in both ears in 4000 Hz and 8000 Hz"}, "[3]": {"conditions": "Tinnitus associated with age-related hearing loss at hearing threshold of 25 dB or more in both ears in 8000 Hz"}, "[4]": {"conditions": "Tinnitus associated with age-related hearing loss, exhibiting auditory disorder (>25 dB) in the range of the human voice"}, "[5]": {"conditions": "Tinnitus associated with auditory disorder (>25 dB) in the range of the human voice"}, "[6]": {"conditions": "Tinnitus including tinnitus sound not of high-frequency alone"}, "[7]": {"conditions": "Tinnitus including two or more different tinnitus sounds, associated with age-related hearing loss, exhibiting auditory disorder (>25 dB) in the range of the human voice"}, "[8]": {"conditions": "Tinnitus including two or more different tinnitus sounds, associated with age-related hearing loss"}, "[9]": {"conditions": "Tinnitus including two or more different tinnitus sounds"}}}
{"smiles": "CC1(C)CC(C)(C)CC(C)(N)C1", "note": "[Neramexane, 1-amino-1,3,3,5,5-pentamethylcyclohexane]", "values": [{"measurement": "inhibiting activity on α9/α10 nicotinic acetylcholine receptors", "setting": "[1]", "value": "exhibits inhibiting activity"}, {"measurement": "inhibiting activity on 5-HT3 receptors", "setting": "5-HT3 receptors", "value": "exhibits inhibiting activity"}, {"measurement": "Change in TRSw score, Neramexane-placebo", "setting": "patients having tinnitus; [2]", "value": "−2.0"}, {"measurement": "Change in TRSw score", "setting": "patients having tinnitus; [2]", "value": "−2.5"}, {"measurement": "Change in TRSw score, Neramexane-placebo", "setting": "patients having tinnitus; [3]", "value": "−1.5"}, {"measurement": "Change in TRSw score", "setting": "patients having tinnitus; [3]", "value": "−2.2"}, {"measurement": "Change in TRSw score, Neramexane-placebo", "setting": "patients having tinnitus; [4]", "value": "−2.0"}, {"measurement": "Change in TRSw score", "setting": "patients having tinnitus; [4]", "value": "−3.6"}, {"measurement": "Change in TRSw score, Neramexane-placebo", "setting": "patients having tinnitus; Tinnitus associated with age-related hearing loss", "value": "−0.5"}, {"measurement": "Change in TRSw score", "setting": "patients having tinnitus; Tinnitus associated with age-related hearing loss, least mean squares", "value": "−2.5"}, {"measurement": "Change in TRSw score, Neramexane-placebo", "setting": "patients having tinnitus; [5]", "value": "−0.6"}, {"measurement": "Change in TRSw score", "setting": "patients having tinnitus; [5]", "value": "−1.7"}, {"measurement": "Change in TRSw score, Neramexane-placebo", "setting": "patients having tinnitus; [6]", "value": "−0.7"}, {"measurement": "Change in TRSw score", "setting": "patients having tinnitus; [6]", "value": "−2.0"}, {"measurement": "Change in TRSw score, Neramexane-placebo", "setting": "patients having tinnitus; [7]", "value": "−4.7"}, {"measurement": "Change in TRSw score", "setting": "patients having tinnitus; [7]", "value": "−5.0"}, {"measurement": "Change in TRSw score, Neramexane-placebo", "setting": "patients having tinnitus; [8]", "value": "−2.7"}, {"measurement": "Change in TRSw score", "setting": "patients having tinnitus; [8]", "value": "−4.1"}, {"measurement": "Change in TRSw score, Neramexane-placebo", "setting": "patients having tinnitus; [9]", "value": "−0.5"}, {"measurement": "Change in TRSw score", "setting": "patients having tinnitus; [9]", "value": "−2.2"}, {"measurement": "therapeutic effect compared to placebo", "setting": "patients having tinnitus; combined groups: age-related hearing loss with auditory disorder >25 dB, two or more sounds with age-related hearing loss, all three criteria", "value": "unexpectedly excellent therapeutic effect"}, {"measurement": "therapeutic effect compared to placebo", "setting": "patients having tinnitus; single-criterion groups: age-related hearing loss, auditory disorder >25 dB in range of human voice, two or more tinnitus sounds, sound not high-frequency alone", "value": "superior therapeutic effect"}]}
